Each compound was assayed against Ras-related protein Rab-2A (Canis lupus familiaris, UniProt P61105) (assay: Rab2A fluorescent GTP competition potency – biochemical, pyrazoline series, Bodipy-FL-GTP, flow cytometry, multiplex, SAR follow-up (AID 2045)).
Chain of Ras-related protein Rab-2A (P61105 whole entry): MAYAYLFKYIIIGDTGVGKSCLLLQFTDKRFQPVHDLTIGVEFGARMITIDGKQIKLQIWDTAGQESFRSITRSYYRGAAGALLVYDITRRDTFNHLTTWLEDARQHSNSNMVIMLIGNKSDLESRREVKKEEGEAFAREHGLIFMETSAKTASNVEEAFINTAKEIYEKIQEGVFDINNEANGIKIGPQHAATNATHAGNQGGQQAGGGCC

EC50 [µM] | Structure (SMILES)
> 30 | CN(C)c1ccc(C2CC(c3ccc(Br)cc3)=NN2c2ccccc2)cc1 (stereo not given) [UNM-0000305846]
> 30 | CN(C)c1ccc(C2CC(c3ccc(Cl)cc3)=NN2c2ccccc2)cc1 (stereo not given) [UNM-0000305847]
> 30 | COc1ccc(C2=NN(c3ccccc3)C(c3ccc(OC)c(OC)c3C(=O)O)C2)cc1 (stereo not given) [UNM-0000305848]
> 30 | Cc1ccccc1[N+]1=N[C-](c2ccccc2)CC1c1cccc([N+](=O)[O-])c1 (stereo not given) [UNM-0000305854]
> 30 | COc1ccccc1N1N=C(c2ccccc2)CC1c1ccccc1 (stereo not given) [UNM-0000305855]
> 30 | O=[N+]([O-])c1cccc(C2C[C-](c3ccccc3)N=[N+]2c2ccccc2)c1 (stereo not given) [UNM-0000305857]
> 30 | COc1ccc(C2CC(c3ccc(Cl)cc3)=NN2c2ccccc2)cc1OC (stereo not given) [UNM-0000305858]
> 30 | FC(F)(F)c1cccc(N2N=C(c3ccc(Cl)cc3)CC2c2ccccc2Cl)c1 (stereo not given) [UNM-0000305859]
> 30 | COc1ccc(C2=NN(c3ccccc3F)C(c3ccc(F)cc3)C2)cc1 (stereo not given) [UNM-0000305860]
> 30 | COc1ccc(C2=NN(c3ccc(Cl)cc3)C(c3ccccc3F)C2)cc1 (stereo not given) [UNM-0000305863]
> 30 | COc1ccc(C2CC(c3ccc(F)cc3)=NN2c2ccccc2)cc1OC (stereo not given) [UNM-0000305864]
> 30 | CN(C)c1ccc(C2CC(c3ccc(F)cc3)=NN2c2ccccc2)cc1 (stereo not given) [UNM-0000305866]
> 30 | COc1ccc(C2CC(c3ccccc3)=NN2c2ccc(C(N)=O)cc2)cc1 (stereo not given) [UNM-0000305870]
> 30 | COc1ccc(C2CC(c3ccccc3)=NN2c2ccc(C(=O)O)cc2)cc1 (stereo not given) [UNM-0000306085]
> 30 | COc1ccc(C2CC(c3ccccc3F)=NN2c2ccc(S(N)(=O)=O)cc2)cc1 (stereo not given) [UNM-0000306110]
> 30 | COc1ccc(C2CC(c3ccccc3Br)=NN2c2ccc(S(N)(=O)=O)cc2)cc1 (stereo not given) [UNM-0000306112]
> 30 | COc1ccc(C2CC(c3cccc(Br)c3)=NN2c2ccc(S(N)(=O)=O)cc2)cc1 (stereo not given) [UNM-0000306113]
> 30 | COc1ccc(C2CC(c3cccc(Cl)c3)=NN2c2ccc(S(N)(=O)=O)cc2)cc1 (stereo not given) [UNM-0000306134]
> 30 | COc1ccc(C2CC(c3ccc(Br)cc3)=NN2c2ccc(S(N)(=O)=O)cc2)cc1 (stereo not given) [UNM-0000306138]
> 30 | NS(=O)(=O)c1ccc(N2N=C(c3ccccc3)CC2c2cccc(Br)c2)cc1 (stereo not given) [UNM-0000306147]
> 30 | Cc1ccccc1C1CC(c2ccccc2)=NN1c1ccc(S(N)(=O)=O)cc1 (stereo not given) [UNM-0000306148]
> 30 | COc1ccc(C2CC(c3ccccc3C)=NN2c2ccc(S(N)(=O)=O)cc2)cc1 (stereo not given) [UNM-0000306152]
> 30 | COc1ccc(C2CC(c3cccc(C)c3)=NN2c2ccc(S(N)(=O)=O)cc2)cc1 (stereo not given) [UNM-0000306153]
> 30 | NS(=O)(=O)c1ccc(N2N=C(c3ccccc3)CC2c2ccc(Br)cc2)cc1 (stereo not given) [UNM-0000306160]
> 30 | NS(=O)(=O)c1ccc(N2N=C(c3ccccc3)CC2c2cccc(Cl)c2)cc1 (stereo not given) [UNM-0000306161]
